Like-named read-outs stand apart in the source and are kept apart here.
Legend:
[1] = parameters: method as in PMID 10817722; settings: cited from earlier work
[2] = biological target: hypoxanthine-xanthine oxidase system (Homo sapiens, UniProt P47989); assay: Cell-free O2^- generation by hypoxanthine-xanthine oxidase system (scavenging test); assay type: biochemical; settings: for O2^- generated by hypoxanthine-xanthine oxidase system: control (DMSO) 12 ± 1.1, test concentration not given
Procedure: A standard hypoxanthine-xanthine oxidase system was used as a cell-free source of O2^-. O2^- was generated by incubation of purified xanthine oxidase (0.02 Units/ml) with hypoxanthine (1.5 mM) at 37°C [21]. O2^- formation was assessed spectrophotometrically as the increase in absorbance at 550 nm associated with the SOD (30 U/mL)-inhibitable reduction FCC (50 μM) as described above for rat microglia O2^- generation and expressed in nmoles/30 minutes.

[3] = system: LPS-activated rat neonatal microglia; assay: PMA-stimulated TXB2 generation by LPS-activated rat neonatal microglia (immunoassay); assay type: cell-based; settings: for IC50 / inhibition at 10 µM: Rattus norvegicus, Microglia; for IC50: PMA 1 μM, 70 min, LPS 0.3 ng/mL 17 h, manzamine added 15 min before; for inhibition at 10 µM: read-out: maximum inhibition of PMA-stimulated TXB2 generation; for inhibition at 10 µM / PMA-stimulated TXB2 released / PMA-stimulated TXB2 release, % of control: at 10 μM
Procedure: (§1) All experiments were performed with adherence to the National Institutes of Health guidelines on the use of experimental animals and with protocols approved by Midwestern University's Research and Animal Care Committee. To isolate rat neonatal microglia, cerebral cortices of 1–2 day-old Sprague-Dawley rats purchased from Harlan (Indianapolis, IN) were surgically removed and placed in cold DMEM + 10% FBS + 120 U/ml P and 12 μg/ml S, the meninges carefully removed, and brain tissue minced and dissociated with trypsin-EDTA at 36°C for 3–5 min. The mixed astroglial cell suspension was plated in either 75- or 162-cm^2 vented cell culture flasks with DMEM medium supplemented with 10% FBS + 120 U/ml P + 12 μg/ml S and grown in a humidified 5% CO2 incubator at 36°C for 12–14 days. […] Microglia were characterized as described earlier.
(§2) To study the effects of manzamines A, B, C, D, E and F on the generation of TXB2 and O2^-, rat neonatal microglia (2 × 10^5 cells/24-well cell culture clusters) were treated to the following protocol. Seventeen hours prior to the experiments, microglia cells were treated with LPS (0.3 ng/ml) in a final volume of 1 ml of DMEM supplemented with 10% FBS + 120 U/ml P + 12 μg/ml. […] O2^-, TXB2 and lactate dehydrogenase (LDH) release were assayed as described below.
(§3) Following the incubation of LPS-activated microglia with HBSS, manzamines or vehicle as explained above, PMA- (1 μM) or OPZ- (0.5 mg/mL)triggered TXB2 generation in the culture supernatants was measured using immunoassays (Cayman Chemical, Ann Arbor, MI) as indicated by the manufacturer's protocol. Results were expressed as pg/mL produced after 70 min of PMA or OPZ stimulation.

[4] = system: LPS-activated rat neonatal microglia; assay: OPZ-stimulated TXB2 generation by LPS-activated rat neonatal microglia (immunoassay); assay type: cell-based; settings: for IC50 / inhibition at 10 µM: Rattus norvegicus, Microglia; for IC50: OPZ 0.5 mg/mL, 70 min, LPS 0.3 ng/mL 17 h; for inhibition at 10 µM / OPZ-stimulated TXB2 released / OPZ-stimulated TXB2 generation, % of control: at 10 μM
Procedure: as §1, §2, §3

[5] = system: LPS-activated rat neonatal microglia; assay: PMA-stimulated O2^- generation by LPS-activated rat neonatal microglia (SOD-inhibitable FCC reduction); assay type: cell-based; settings: for IC50 / inhibition at 10 µM: Rattus norvegicus, Microglia; for IC50: PMA 1 μM, 70 min, LPS 0.3 ng/mL 17 h
Procedure: as §1, §2
(§4) O2^- generation was determined by the SOD-inhibitable reduction of FCC [23]. […] All experimental treatments were run in triplicate and in a final volume of 1 ml. Changes in FCC absorbance were measured at 550 nm using a Beckman DU-650 spectrophotometer.

[6] = system: LPS-activated rat neonatal microglia; assay: OPZ-stimulated O2^- generation by LPS-activated rat neonatal microglia (SOD-inhibitable FCC reduction); assay type: cell-based; settings: for IC50: OPZ 0.5 mg/mL, 70 min, LPS 0.3 ng/mL 17 h; for effect on OPZ-stimulated O2^- generation: even at 10 μM
Procedure: as §1, §2, §4

[7] = system: LPS-activated rat neonatal microglia; assay: LDH release (cytotoxicity) from LPS-activated rat neonatal microglia; assay type: cell-based
Procedure: as §2, with “μg/ml. Thereafter the media was removed and replaced with 1 ml warm HBSS, one of the manzamines (0.1–10 μM final concentration) or vehicle (DMSO) was added, and the microglia incubated for fifteen minutes in a humidified 5% CO2 incubator at 35.9°C. After the fifteen minute preincubation period with either manzamines or vehicle, PMA (1 μM) or OPZ (0.5 mg/mL) was added and microglia incubated for 70 minutes in a humidified 5% CO2 incubator at 35.9°C in the presence of the manzamines or vehicle.” for “μg/ml.”
Lactate dehydrogenase (LDH) release from microglia was determined spectrophotometrically as described elsewhere. Microglia LDH release was expressed as a percentage of total LDH. Total LDH resulted from 0.1% Triton X-100-lysed microglia cells (intracellular LDH) plus LDH released to the extracellular medium.

[8] = system: LPS-induced microglia PGE2 synthesis; settings: cited from earlier work
[9] = system: activated rat microglia; settings: read-out: IC50, PMA-stimulated O2^- generation in microglia; cited from earlier work
[10] = read-out: apparent IC50, LPS-induced microglia PGE2 synthesis

Sequence of hypoxanthine-xanthine oxidase system (P47989 whole entry): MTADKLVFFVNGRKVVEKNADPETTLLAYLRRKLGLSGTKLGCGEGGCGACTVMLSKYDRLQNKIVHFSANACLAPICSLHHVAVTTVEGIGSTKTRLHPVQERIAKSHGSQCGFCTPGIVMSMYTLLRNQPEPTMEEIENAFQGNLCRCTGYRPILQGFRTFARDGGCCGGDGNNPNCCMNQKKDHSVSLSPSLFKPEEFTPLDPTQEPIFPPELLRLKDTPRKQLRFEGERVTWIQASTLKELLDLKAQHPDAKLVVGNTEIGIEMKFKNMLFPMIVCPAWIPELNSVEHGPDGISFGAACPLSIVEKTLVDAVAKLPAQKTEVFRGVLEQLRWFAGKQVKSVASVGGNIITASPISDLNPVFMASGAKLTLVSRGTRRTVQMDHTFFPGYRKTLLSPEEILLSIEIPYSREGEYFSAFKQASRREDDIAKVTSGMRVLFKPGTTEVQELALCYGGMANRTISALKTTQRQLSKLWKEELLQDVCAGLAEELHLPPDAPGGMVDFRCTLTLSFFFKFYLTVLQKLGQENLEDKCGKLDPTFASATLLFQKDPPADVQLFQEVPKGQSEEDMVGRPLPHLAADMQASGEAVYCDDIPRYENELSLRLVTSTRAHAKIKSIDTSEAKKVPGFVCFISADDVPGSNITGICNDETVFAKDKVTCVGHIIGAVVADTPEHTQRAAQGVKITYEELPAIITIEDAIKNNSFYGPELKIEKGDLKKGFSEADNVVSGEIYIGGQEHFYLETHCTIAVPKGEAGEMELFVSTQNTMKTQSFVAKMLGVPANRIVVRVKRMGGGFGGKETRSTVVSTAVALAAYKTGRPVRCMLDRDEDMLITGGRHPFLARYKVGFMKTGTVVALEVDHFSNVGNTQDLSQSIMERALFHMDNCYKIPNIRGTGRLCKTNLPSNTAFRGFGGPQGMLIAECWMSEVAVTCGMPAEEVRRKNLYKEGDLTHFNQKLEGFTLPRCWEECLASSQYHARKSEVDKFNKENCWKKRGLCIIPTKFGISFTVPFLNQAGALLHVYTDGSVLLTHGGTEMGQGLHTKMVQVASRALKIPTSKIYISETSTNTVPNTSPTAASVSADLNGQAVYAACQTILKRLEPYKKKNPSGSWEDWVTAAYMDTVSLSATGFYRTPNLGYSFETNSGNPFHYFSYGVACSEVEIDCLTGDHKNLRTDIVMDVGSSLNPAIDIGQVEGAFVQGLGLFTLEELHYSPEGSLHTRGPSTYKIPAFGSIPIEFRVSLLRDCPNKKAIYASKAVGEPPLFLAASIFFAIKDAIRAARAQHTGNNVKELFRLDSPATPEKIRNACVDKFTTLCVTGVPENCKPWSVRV

Compound | O2^- generated by hypoxanthine-xanthine oxidase system [2] [nmoles/30 min] | IC50 [3] [µM] | PMA-stimulated TXB2 released [3] | IC50 [4] [µM] | OPZ-stimulated TXB2 released [4] | IC50 [5] [µM] | IC50 ([6]; Rattus norvegicus, Microglia) [µM] | other results
O[C@]12C=C(c3nccc4c3[nH]c3ccccc34)[C@@H]3CCN(CCCC/C=C\CC1)C[C@@]31C[C@@H]3/C=C\CCCCN3[C@H]12 [MZA, manzamine A] | 15.3 ± 4.4 | < 0.016 | 78.3 ± 45 pg of TXB2 per 200,000 microglia per 70 min | 3.16 | 1,927 ± 474 pg of TXB2 per 200,000 microglia per 70 min | 0.1 | > 10 | in vivo toxicity [1]: lack of significant in vivo toxicity; inhibition at 10 µM [3]: 95.5%; inhibition at 10 µM [4]: 58%; inhibition at 10 µM ([5]; at 10 μM): 55.9 ± 6.1%; OPZ-stimulated O2^- released ([6]; at 10 μM): 9.5 ± 1 O2^- nmol per 200,000 microglia per 70 min; effect on OPZ-stimulated O2^- generation [6]: did not appear to affect
C1=C\CC[C@]23CN4CCCC/C=C\CC[C@@]5(O[C@H]5[C@@H](c5nccc6c5[nH]c5ccccc56)[C@@H]2CC4)[C@@H]3NCCCC/1 [MZB, manzamine B] | 15.3 ± 2.4 | 1.6 | 546.3 ± 281 pg of TXB2 per 200,000 microglia per 70 min | 1.44 | 1,160 ± 207 pg of TXB2 per 200,000 microglia per 70 min | 3.16 | 4.17 | PMA-stimulated TXB2 release, % of control [3]: 15.5 % of control; OPZ-stimulated TXB2 generation, % of control [4]: 25.6 % of control; PMA-stimulated O2^- release, % of control ([5]; at 10 μM): 20 % of control; PMA-stimulated O2^- released ([5]; at 10 μM): 2.14 ± 2.14 nmol of O2^- per 200,000 microglia per 70 min; OPZ-stimulated O2^- generation, % of control ([6]; at 10 μM): 16.5 % of control; OPZ-stimulated O2^- released ([6]; at 10 μM): 1.5 ± 0.7 O2^- nmol per 200,000 microglia per 70 min; concentrations cytotoxic to neonatal brain microglia [7]: above 1 μM
C1=C\CCCCN(CCc2nccc3c2[nH]c2ccccc23)CCCC/1 [MZC, manzamine C] | 20.7 ± 3.1 | 2.98 | 677 ± 293 pg of TXB2 per 200,000 microglia per 70 min | 3.34 | 1,345 ± 160 pg of TXB2 per 200,000 microglia per 70 min | 3.43 | 9.3 | PMA-stimulated TXB2 release, % of control [3]: 19.6 % of control; OPZ-stimulated TXB2 generation, % of control [4]: 29.8 % of control; PMA-stimulated O2^- release, % of control ([5]; at 10 μM): 36.1 % of control; PMA-stimulated O2^- released ([5]; at 10 μM): 3.7 ± 2.2 nmol of O2^- per 200,000 microglia per 70 min; OPZ-stimulated O2^- generation, % of control ([6]; at 10 μM): 41.6 % of control; OPZ-stimulated O2^- released ([6]; at 10 μM): 3.9 ± 0.3 O2^- nmol per 200,000 microglia per 70 min
O[C@]12C=C(C3NCCc4c3[nH]c3ccccc43)[C@@H]3CCN(CCCC/C=C\CC1)C[C@@]31C[C@@H]3/C=C\CCCCN3[C@H]12 (stereo partly drawn) [MZD, manzamine D] | 22.2 ± 2 | 0.23 | 611 ± 342 pg of TXB2 per 200,000 microglia per 70 min | > 10 | 3,613 ± 469 pg of TXB2 per 200,000 microglia per 70 min | < 0.1 | > 10 | PMA-stimulated TXB2 release, % of control [3]: 18.8 % of control; OPZ-stimulated TXB2 generation, % of control [4]: 79.9 % of control; PMA-stimulated O2^- release, % of control ([5]; at 0.1 μM): 14 % of control; PMA-stimulated O2^- released ([5]; at 0.1 μM): 0.7 ± 0.7 nmol of O2^- per 200,000 microglia per 70 min; effect on OPZ-stimulated O2^- generation [6]: did not affect
O=C1CCCN2[C@@H](CC1)C[C@]13CN4CCCC/C=C\CC[C@](O)(C=C(c5nccc6c5[nH]c5ccccc56)[C@@H]1CC4)[C@H]23 [MZE, manzamine E] | 16.3 ± 2.2 | > 10 | 1,614 ± 628 pg of TXB2 per 200,000 microglia per 70 min | > 10 | 2,594 ± 646 pg of TXB2 per 200,000 microglia per 70 min | > 10 | > 10 | inhibition at 10 µM [3]: 49.4%; inhibition at 10 µM [4]: 43.1%; inhibition at 10 µM ([5]; at 10 μM): 26.3%; PMA-stimulated O2^- released ([5]; at 10 μM): 8.5 ± 2.1 nmol of O2^- per 200,000 microglia per 70 min; effect on OPZ-stimulated O2^- generation [6]: did not affect
O=C1CCCN2[C@@H](CC1)C[C@]13CN4CCCC/C=C\CC[C@](O)(C=C(c5nccc6c5[nH]c5c(O)cccc56)C1CC4)[C@H]23 (stereo partly drawn) [MZF, manzamine F] | 20.1 ± 3.6 | > 10 | 3,202 ± 1,139 pg of TXB2 per 200,000 microglia per 70 min | > 10 | 3,317 ± 121 pg of TXB2 per 200,000 microglia per 70 min | > 10 | > 10 | PMA-stimulated TXB2 release, % of control [3]: 104.1 ± 24.7 % of control; inhibition at 10 µM [4]: 26.2%; PMA-stimulated O2^- release, % of control ([5]; at 10 μM): 113 ± 14.5 % of control; PMA-stimulated O2^- released ([5]; at 10 μM): 12.8 ± 1.6 nmol of O2^- per 200,000 microglia per 70 min; inhibition at 10 µM ([6]; Rattus norvegicus, Microglia, at 10 μM, non-statistically significant): 15.7%
CS(=O)(=O)Nc1ccc([N+](=O)[O-])cc1OC1CCCCC1 [NS-398] | – | – | – | – | – | – | – | IC50 [8, 10]: 0.001 to 0.005 µM
CC(=O)Oc1ccccc1C(=O)O [acetylsalicylic acid] | – | – | – | – | – | – | – | IC50 ([8]; COX-1 inhibitor, read-out: IC50, LPS-induced microglia PGE2 synthesis): 3.12 to 10 µM
C=CCN1C[C@H](C(=O)N(CCCN(C)C)C(=O)NCC)C[C@@H]2c3cccc4[nH]cc(c34)C[C@H]21 [cabergoline] | – | – | – | – | – | – | – | IC50 [9]: > 100 µM
CC(C(=O)O)c1ccc(-c2ccccc2)c(F)c1 (stereo not drawn) [flurbiprofen] | – | – | – | – | – | – | – | IC50 ([8]; COX-1 inhibitor, read-out: apparent IC50, LPS-induced microglia PGE2 synthesis): 0.1 µM
COc1ccc2c(c1)c(CC(=O)O)c(C)n2C(=O)c1ccc(Cl)cc1 [indomethacin] | – | – | – | – | – | – | – | IC50 [8, 10]: 0.001 µM
CO[C@]12C[C@@H](COC(=O)c3cncc(Br)c3)CN(C)[C@@H]1Cc1cn(C)c3cccc2c13 [nicergoline] | – | – | – | – | – | – | – | IC50 [9]: 10 to 15 µM
CCCn1cnc2c1c(=O)n(CCCCC(C)=O)c(=O)n2C [propentofylline] | – | – | – | – | – | – | – | IC50 [9]: > 100 µM
superoxide dismutase: superoxide dismutase (from bovine liver), Sigma | – | – | – | – | – | – | – | effect on hypoxanthine-xanthine oxidase O2^- generation [2]: abolished

Source: article PMC1079881, “Differential modulation of microglia superoxide anion and thromboxane B2 generation by the marine manzamines” (BMC Pharmacology, 2005)
